Source: US20240100025A1, “Materials and Methods for Treating Viral and Other Medical Conditions” (Biotronik AG, priority 2020, published 2024)

How the values were obtained:
Hantavirus = details: 0.05 μM, lowest concentration studied; cited from earlier work
[1] = Novartis everolimus study, rats; cited from earlier work
[2] = oral; cited from earlier work

Structure (SMILES): CO[C@H]1C[C@@H]2CC[C@@H](C)[C@@](O)(O2)C(=O)C(=O)N2CCCC[C@H]2C(=O)O[C@H]([C@H](C)C[C@@H]2CC[C@@H](OC(=O)C(C)(CO)CO)[C@H](OC)C2)CC(=O)[C@H](C)/C=C(\C)[C@@H](O)[C@@H](OC)C(=O)[C@H](C)C[C@H](C)/C=C/C=C/C=C/1C [temsirolimus]
- reduction in virus titers (Hantavirus): 50%

Structure (SMILES): CO[C@H]1C[C@@H]2CC[C@@H](C)[C@@](O)(O2)C(=O)C(=O)N2CCCC[C@H]2C(=O)O[C@H]([C@H](C)C[C@@H]2CC[C@@H](OCCO)[C@H](OC)C2)CC(=O)[C@H](C)/C=C(\C)[C@@H](O)[C@@H](OC)C(=O)[C@H](C)C[C@H](C)/C=C/C=C/C=C/1C [everolimus]
- tissue distribution, highest drug concentrations [1]: highest drug concentrations were in the gastrointestinal tract and liver

Structure (SMILES): CO[C@H]1C[C@@H]2CC[C@@H](C)[C@@](O)(O2)C(=O)C(=O)N2CCCC[C@H]2C(=O)O[C@H]([C@H](C)C[C@@H]2CC[C@@H](O)[C@H](OC)C2)CC(=O)[C@H](C)/C=C(\C)[C@@H](O)[C@@H](OC)C(=O)[C@H](C)C[C@H](C)/C=C/C=C/C=C/1C [sirolimus, Rapamycin]
- bioavailability [2]: ~14%
- fraction unbound (Protein binding): 0.049
